Experimental data published in ChEMBL document CHEMBL1158743, “Tenellones A and B from a Diaporthe sp.: two highly substituted benzophenone inhibitors of parasite cGMP-dependent protein kinase activity” (J Nat Prod, 2005).
≈ marks a conversion by molar mass, not a printed value. Calls of active or inactive are those of the source. No cut-off for these calls is given here.

What was measured:
Gallus gallus = species: Gallus gallus; test: Toxicity to Eimera tenella infected chickens given ad libitum at 100 ppm; assay type: organism-based; details: chicken, in vivo, po
Eimeria tenella = test: Antiparasitic activity against Eimera tenella infected in chickens given ad libitum at 100 ppm fed with diet; assay type: functional, organism-based
[1] = target: cGMP-dependent protein kinase (Eimeria tenella, UniProt Q8MMZ8); test: Inhibition of Eimera tenella CGMP-dependent protein kinase by radiometric assay
Staphylococcus aureus = test: Antibacterial activity against Staphylococcus aureus; assay type: functional
Enterococcus faecium = test: Antibacterial activity against Enterococcus faecium; assay type: functional
Toxoplasma gondii = test: Antiparasitic activity against Toxoplasma gondii infected in human foreskin fibroblasts assessed as beta-galactosidase activity after 5 days by whole cell assay; assay type: functional, organism-based; details: 120 h

cGMP-dependent protein kinase, sequence (Q8MMZ8 whole entry): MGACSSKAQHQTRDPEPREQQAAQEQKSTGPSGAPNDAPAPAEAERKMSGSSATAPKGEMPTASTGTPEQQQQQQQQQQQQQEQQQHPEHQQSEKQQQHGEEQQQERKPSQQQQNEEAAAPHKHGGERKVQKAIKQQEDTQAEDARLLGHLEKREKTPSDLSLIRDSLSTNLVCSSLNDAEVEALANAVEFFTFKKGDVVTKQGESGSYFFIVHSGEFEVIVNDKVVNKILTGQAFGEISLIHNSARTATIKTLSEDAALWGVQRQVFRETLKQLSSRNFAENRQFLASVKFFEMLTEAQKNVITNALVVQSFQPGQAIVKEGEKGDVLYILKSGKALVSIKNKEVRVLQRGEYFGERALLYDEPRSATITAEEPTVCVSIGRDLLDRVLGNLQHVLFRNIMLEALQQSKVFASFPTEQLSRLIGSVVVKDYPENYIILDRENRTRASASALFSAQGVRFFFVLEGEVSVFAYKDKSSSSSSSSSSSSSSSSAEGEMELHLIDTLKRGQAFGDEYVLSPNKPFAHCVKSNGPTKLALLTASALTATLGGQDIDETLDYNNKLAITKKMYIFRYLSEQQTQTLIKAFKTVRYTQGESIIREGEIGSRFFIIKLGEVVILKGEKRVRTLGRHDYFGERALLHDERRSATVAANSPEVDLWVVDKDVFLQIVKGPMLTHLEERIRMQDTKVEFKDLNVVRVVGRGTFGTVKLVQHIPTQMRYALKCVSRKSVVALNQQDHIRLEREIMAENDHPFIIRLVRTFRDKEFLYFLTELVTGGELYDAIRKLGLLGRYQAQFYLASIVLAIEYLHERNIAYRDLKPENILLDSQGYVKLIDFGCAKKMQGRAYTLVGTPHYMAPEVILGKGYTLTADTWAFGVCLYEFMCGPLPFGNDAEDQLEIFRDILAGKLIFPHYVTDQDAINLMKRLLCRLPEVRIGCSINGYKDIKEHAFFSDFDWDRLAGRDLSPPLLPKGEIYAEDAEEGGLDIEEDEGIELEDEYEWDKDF

IC50 [1] [µM] | SMILES | Activity (Gallus gallus) | Activity (Eimeria tenella) | MIC (Staphylococcus aureus) [mg/L] | MIC (Enterococcus faecium) [mg/L] | IC50 (Toxoplasma gondii) [µM]
8.7 | CC(C)=CCc1ccc(O)c(C=O)c1C(=O)c1cc(C)cc2c1OC(C(C)(C)O)CO2 (stereo not given) [TENELLONE B] | Non-toxic | inactive | – | – | –
– | COc1c(Cl)c(C)c(Cl)c(O)c1C(=O)c1c(C=O)c(O)cc(O)c1CC=C(C)C [PESTALONE] | – | – | 0.037 (≈ 0.0842 µM) | 0.078 (≈ 0.178 µM) | –
12.6 | CC(C)=CCc1ccc(O)c(C=O)c1C(=O)c1cc(C)cc(OCC(O)C(C)(C)O)c1O (stereo not given) [TENELLONE A] | Non-toxic | inactive | – | – | 1.8
< 0.001 | CN1CCC(c2cc(-c3ccncc3)c(-c3ccc(F)cc3)[nH]2)CC1 | – | – | – | – | –
